Structures can show the parent of a compound that is named as a salt.

One test deals with SARS-CoV-2 Mac1 (Severe acute respiratory syndrome coronavirus 2, UniProt P0DTD1). Nature of the test: biochemical. To be noted: 100 µM; inhibitor.
Consider `CC(C)(C)NCC(O)c1ccc(O)c(CO)c1` (stereo not drawn) [Salbutamol], for which the %inhibition (commonly the drop in the measured response relative to a control, in per cent) came to 0%. Same read-out and setting: in the case of `NCCc1c[nH]cn1` [Histamine 2HCl] it was 6.627%; in that of `OC[C@@H](O)[C@@H](O[C@@H]1O[C@H](CO)[C@H](O)[C@H](O)[C@H]1O)[C@H](O)[C@@H](O)CO` [Lactitol], 5.8%; in that of `CCN1CCN(Cc2ccc(Nc3ncc(F)c(-c4cc(F)c5nc(C)n(C(C)C)c5c4)n3)nc2)CC1` [abemaciclib (LY2835219)], 4.001%. `Cc1c(-c2ccc(O)cc2)n(Cc2ccc(OCCN3CCCCCC3)cc2)c2ccc(O)cc12` [Bazedoxifene HCl]: the “%inhibition” value is reported as 0%. The same measure, in the same setting: as for `CCOC(=O)Nc1ccc(NCc2ccc(F)cc2)cc1N` [Retigabine 2HCl], the figure is 8.664%; as for `CCNC(=O)[C@@H]1CCCN1C(=O)[C@H](CCCNC(=N)N)NC(=O)[C@H](CC(C)C)NC(=O)[C@@H](CC(C)C)NC(=O)[C@H](Cc1ccc(O)cc1)NC(=O)[C@H](CO)NC(=O)[C@H](Cc1c[nH]c2ccccc12)NC(=O)[C@H](Cc1c[nH]cn1)NC(=O)[C@@H]1CCC(=O)N1` [Leuprorelin Acetate], 6.662%.

Take `CC[C@H]1OC(=O)[C@H](C)[C@@H](O[C@H]2C[C@@](C)(OC)[C@@H](O)[C@H](C)O2)[C@H](C)[C@@H](O[C@@H]2O[C@H](C)C[C@H](N(C)C)[C@H]2O)[C@](C)(O)C[C@@H](C)CN(C)[C@H](C)[C@@H](O)[C@]1(C)O` [Azithromycin]: the “%inhibition” value turned out to be 5.483%. In the case of `NCc1ccc(S(N)(=O)=O)cc1` [Mafenide Acetate], the “%inhibition” value is recorded as 0%. As for `CO/N=C(\C(=O)N[C@@H]1C(=O)N2C(C(=O)O)=C(CSc3nc(=O)c(O)nn3C)CS[C@H]12)c1csc(N)n1` [Ceftriaxone Sodium Trihydrate], the “%inhibition” value is recorded as 0.1034%. Consider `CC[C@H]1OC(=O)[C@H](C)[C@@H](O[C@H]2C[C@@](C)(OC)[C@@H](O)[C@H](C)O2)[C@H](C)[C@@H](O[C@@H]2O[C@H](C)C[C@H](N(C)C)[C@H]2O)[C@](C)(O)C[C@@H](C)CN(C)[C@H](C)[C@@H](O)[C@]1(C)O` [Azithromycin Dihydrate], for which the “%inhibition” value amounted to 2.079%. Consider `COc1ccc2cc3[n+](cc2c1OC)CCc1cc2c(cc1-3)OCO2` [Berberine chloride], for which the “%inhibition” value was 8.063%.

Staying with this test, now noted: read-out: %inhibition.
For `CC(C)=CCOc1ccc(/C=C/C(=O)c2ccc(OCC=C(C)C)cc2OCC(=O)O)cc1` [Sofalcone], the inhibition (commonly the change of the read-out against control, counted positive when it falls) at 100 µM turned out to be 14.1%.

For the compound `CCCCOC(=O)c1ccc(N)cc1` [Butamben], the inhibition at 100 µM was found to be 2.1%. `COC(=O)C1=C(C)NC(C)=C(C(=O)O[C@@H]2CCCN(Cc3ccccc3)C2)[C@@H]1c1cccc([N+](=O)[O-])c1` (racemic) [Benidipine HCl]: the inhibition at 100 µM amounted to 4.77%.

For the compound `CC(C(=O)O)c1ccc(C(=O)c2ccccc2)s1` (stereo not drawn) [Tiaprofenic acid], the inhibition at 100 µM came to 26.3%. Regarding `C[n+]1ccccc1C=NO` [Pralidoxime Iodide], the inhibition at 100 µM turned out to be 22.4%. In the case of `Clc1cccc(Cl)c1NC1=NCCN1` [Clonidine HCl], the inhibition at 100 µM stood at 0%. For the compound `CC[C@@H]([C@H](C)O)n1ncn(-c2ccc(N3CCN(c4ccc(OC[C@@H]5CO[C@@](Cn6cncn6)(c6ccc(F)cc6F)C5)cc4)CC3)cc2)c1=O` [Posaconazole], the inhibition at 100 µM was found to be 37.1%. As for `CCCCOc1cc(C(=O)OCCN(CC)CC)ccc1N` [Oxybuprocaine HCl], the inhibition at 100 µM was 8.43%. Take `COCCCOc1cc(C[C@@H](C[C@H](N)[C@@H](O)C[C@H](C(=O)NCC(C)(C)C(N)=O)C(C)C)C(C)C)ccc1OC` [Aliskiren Hemifumarate]: the inhibition at 100 µM amounted to 0%.

Consider `CN(C)CC(c1ccc(O)cc1)C1(O)CCCCC1` (stereo not drawn) [Desvenlafaxine Succinate], for which the inhibition at 100 µM was 7.7%. As for `O=C1CN2Cc3c(ccc(Cl)c3Cl)N=C2N1` [Anagrelide HCl], the inhibition at 100 µM turned out to be 0%. Regarding `CC(=O)[C@@]1(O)CC[C@H]2[C@@H]3CCC4=CC(=O)CCC4=C3[C@@H](c3ccc(N(C)C)cc3)C[C@@]21C` [Ulipristal], the inhibition at 100 µM is 0.321%. For `O=[N+]([O-])C(Br)(CO)CO` [Bronopol], the inhibition at 100 µM is 0%. Regarding `Nc1ncn([C@H]2C[C@H](O)[C@@H](CO)O2)c(=O)n1` [Decitabine], the inhibition at 100 µM worked out at 0%. In the case of `CC(=O)O[C@H]1C[C@@H]2CC[C@@H]3[C@H](CC[C@@]4(C)[C@H]3C[C@H]([N+]3(C)CCCCC3)[C@@H]4OC(C)=O)[C@@]2(C)C[C@@H]1N1CCCCC1` [Vecuronium Bromide], the inhibition at 100 µM was determined as 0%. On to `O=C(O)P(=O)(O)O` [Foscarnet Sodium], for which the inhibition at 100 µM amounted to 2.46%. Consider `CC1(C)OC[C@@H](COC(=O)CCc2ccc(OC[C@@H](O)CNCCNC(=O)N3CCOCC3)cc2)O1` [Landiolol hydrochloride], for which the inhibition at 100 µM stood at 18%.

On to `CCOc1cc(N)c(Cl)cc1C(=O)NCC1CN(Cc2ccc(F)cc2)CCO1` (stereo not drawn) [Mosapride], for which the inhibition at 100 µM turned out to be 0%. Take `C[C@@H](O)[C@H]1C(=O)N2C(C(=O)O)=C([C@H]3CCCO3)S[C@H]12` [Faropenem Sodium]: the inhibition at 100 µM stood at 0%.

Take `CCOC(=O)[N-]c1c[n+](N2CCOCC2)no1` [Molsidomine]: the inhibition at 100 µM stood at 0%. With `Nc1ccc(C(=O)NCC(=O)O)cc1` [Sodium 4-aminohippurate Hydrate], the inhibition at 100 µM turned out to be 0%. Turning to `CCCCCCCCCCCCCCCCOc1nc2ccc(C)cc2c(=O)o1` [Cetilistat], the inhibition at 100 µM worked out at 8.35%. On to `CCN(CC)CCNC(=O)c1cc(Cl)c(N)cc1OC` [Metoclopramide HCl], for which the inhibition at 100 µM amounted to 0%.

`NC(=O)CCC(N)C(=O)O` (racemic) [DL-Glutamine]: the inhibition at 100 µM came out at 0%. Regarding `COc1cc2c(cc1OC)[C@@]13CCN4CC5=CCO[C@H]6CC(=O)N2[C@H]1[C@H]6[C@H]5C[C@H]43` [Brucine sulfate salt hydrate], the inhibition at 100 µM came to 0%. Same read-out and setting: as for `NC(N)=Nc1nc(CSCC/C(N)=N/S(N)(=O)=O)cs1` [Famotidine], the figure is 1.86%; as for `CCCCOc1ccc(CC(=O)NO)cc1` [Bufexamac], 14.1%; as for `Cc1c(C)c2c(c(C)c1O)CCC(C)(COc1ccc(CC3SC(=O)NC3=O)cc1)O2` (stereo not drawn) [Troglitazone (CS-045)], 5.13%.

On to `CC(C)OC(=O)C(C)(C)Oc1ccc(C(=O)c2ccc(Cl)cc2)cc1` [Fenofibrate], for which the inhibition at 100 µM stood at 28.9%. Still for that read-out and setting: as for `CC(=O)c1c(C)c2cnc(Nc3ccc(N4CCNCC4)cn3)nc2n(C2CCCC2)c1=O` [Palbociclib (PD-0332991) HCl], the figure is 0%; as for `CN(C)/N=N/c1[nH]cnc1C(N)=O` [Dacarbazine], 26.1%. In the case of `CC(=O)OCC(=O)[C@@]1(O)CC[C@H]2[C@@H]3CCC4=CC(=O)CC[C@]4(C)[C@H]3C(=O)C[C@@]21C` [Cortisone acetate], the inhibition at 100 µM was determined as 10.7%. Same read-out and setting: as for `CCCCCCCN(CC)CCCC(O)c1ccc(NS(C)(=O)=O)cc1` (stereo not drawn) [Ibutilide Fumarate], the figure is 0%. On to `NC(=O)c1ncn([C@@H]2O[C@H](CO)[C@@H](O)[C@H]2O)c1N` [AICAR (Acadesine)], for which the inhibition at 100 µM was determined as 14.6%.

For `CC(=O)OCC(COC(C)=O)OC(C)=O` [Triacetin], the inhibition at 100 µM turned out to be 3.58%. With `CC(O)(CS(=O)(=O)c1ccc(F)cc1)C(=O)Nc1ccc(C#N)c(C(F)(F)F)c1` (stereo not drawn) [Bicalutamide], the inhibition at 100 µM is 0%. For the compound `CC(=O)/N=c1/sc(S(N)(=O)=O)nn1C` [Methazolamide], the inhibition at 100 µM was found to be 0%. Turning to `O=S(=O)(O)CCSSCCS(=O)(=O)O` [Dimesna], the inhibition at 100 µM amounted to 22.1%. For the compound `CCN(CC)CCOC(=O)C(O)(c1ccccc1)c1ccccc1` [Benactyzine hydrochloride], the inhibition at 100 µM is 0%. On the same count and under the same terms, as for `Nc1nccs1` [Aminothiazole], the figure is 1.18%; as for `Cc1cccc(Cc2c[nH]cn2)c1C` [Detomidine HCl], 0%; as for `NC[C@@H]1O[C@H](O[C@H]2[C@@H](O)[C@H](O[C@@H]3[C@@H](O)[C@H](N)C[C@H](N)[C@H]3O[C@H]3O[C@H](CN)[C@@H](O)[C@H](O)[C@H]3N)O[C@@H]2CO)[C@H](N)[C@@H](O)[C@@H]1O` [Neomycin sulfate], 0%. Regarding `CC(C)c1nc(CN(C)C(=O)N[C@H](C(=O)N[C@@H](Cc2ccccc2)C[C@H](O)[C@H](Cc2ccccc2)NC(=O)OCc2cncs2)C(C)C)cs1` [Ritonavir], the inhibition at 100 µM was found to be 0%. Regarding `C[C@H](NCc1ccc(OCc2cccc(F)c2)cc1)C(N)=O` [Safinamide], the inhibition at 100 µM was determined as 15%. Take `CNC(=O)[C@H](Cc1c[nH]c2ccccc12)NC(=O)[C@@H](CC(=O)NO)CC(C)C` [Ilomastat (GM6001, Galardin)]: the inhibition at 100 µM is 21%. As to `CCNC(=O)[C@@H]1CCCN1C(=O)[C@H](CCCN=C(N)N)NC(=O)[C@H](CC(C)C)NC(=O)[C@@H](C)NC(=O)[C@H](Cc1ccc(O)cc1)NC(=O)[C@H](CO)NC(=O)[C@H](Cc1c[nH]c2ccccc12)NC(=O)[C@H](Cc1cnc[nH]1)NC(=O)[C@@H]1CCC(=O)N1` [Alarelin Acetate], the inhibition at 100 µM worked out at 0.14%. `Cc1c(-c2ccccc2)oc2c(C(=O)OCCN3CCCCC3)cccc2c1=O` [Flavoxate HCl]: the inhibition at 100 µM stood at 0%. For `CCOC(=O)c1ccc(C#Cc2ccc3c(c2)C(C)(C)CCS3)nc1` [Tazarotene], the inhibition at 100 µM came to 0%. For the compound `COCC[n+]1c2c(n(Cc3cnccn3)c1C)C(=O)c1ccccc1C2=O` [YM155 (Sepantronium Bromide)], the inhibition at 100 µM amounted to 0%. With `CC1(C)S[C@@H]2[C@H](NC(=O)[C@H](N)c3ccccc3)C(=O)N2[C@H]1C(=O)OCOC(=O)[C@@H]1N2C(=O)C[C@H]2S(=O)(=O)C1(C)C` [Sultamicillin], the inhibition at 100 µM was found to be 8.63%.

Consider `COC(=O)N[C@H](C(=O)N1CC2(CC2)C[C@H]1c1nc(-c2ccc3c(c2)C(F)(F)c2cc(-c4ccc5[nH]c([C@@H]6[C@H]7CC[C@H](C7)N6C(=O)[C@@H](NC(=O)OC)C(C)C)nc5c4)ccc2-3)c[nH]1)C(C)C` [Ledipasvir (GS5885)], for which the inhibition at 100 µM was determined as 23.8%.

(Values after publication doi:10.1101/2021.10.07.463234v2 (biorxiv, 2021).)
